{"source": "patent US10286000B2", "about": "“Retinoid X receptor-gamma agonists and retinoid X receptor-alpha antagonists for treatment of cancer” (St. Jude Children's Research Hospital, Inc., priority 2013, dated 2019)", "key": {"[1]": {"system": "NKG2DL (MICA-B, ULBP1-3) surface expression", "test": "flow cytometry of NKG2DL cell surface expression in cancer cell lines", "assay_type": "cell-based, human", "details": "for effect of co-treatment on SPIR's upregulation of NKG2DLs: HCT116, SPIR 56 μM 3 days, HX531 10 μM, caffeine 1.5 mM, wortmannin 10 μM, KU55933 10 μM, VE-821 10 μM; for NKG2DL expression, compound alone: HCT116 cells, 3 days", "protocol": "Data are representative of five independent experiments. […] Controls were stained with APC-conjugated anti-human Fc antibody alone without preincubation with NKG2D-Fc. Data are representative of three independent experiments. […] Results are representative of two independent experiments. […] (E) NKG2DL mRNA expression in the colon cancer cell lines was analyzed by qRT-PCR analysis. Data are normalized to GAPDH mRNA levels and are presented as fold-change relative to the expression in DMSO-treated cells (n=5). (F) Lentiviral-based luciferase reporter construct containing the putative ULBP2 promoter (−2415 to 0 bp from the transcription start site: 73 bp upstream of ATG) was transduced into the colon cancer cell lines. Positively transduced cells were selected by puromycin treatment (2 μg/ml) for 2 weeks. […] Data shown are expressed as fold-change relative to the luciferase activity observed in DMSO-treated cells (n=3). * P<0.05, ** P<0.01.\n(§1) Cell lines were stained with allophycocyanin-conjugated anti-MICA, anti-MICB, or anti-ULBP2 antibodies for 20 min at 4° C. For ULBP1 and ULBP3 staining, cells were first incubated with anti-ULBP1 and anti-ULBP3 antibodies and then with allophycocyanin-conjugated goat anti-mouse IgG antibody. To analyze total NKG2DL cell surface expression, cells were first incubated with human NKG2D-Fc for 20 min at 4° C. and then with allophycocyanin-conjugated mouse anti-human IgG (Fc) antibody. Cells were washed and analyzed on a C6 flow cytometer (Accuri). Data were analyzed using FlowJo software (TreeStar)."}, "[2]": {"system": "HCT116, HT29, and CAL27 cells", "test": "wound-healing assay", "assay_type": "cell-based, human", "details": "HCT116 cells", "protocol": "(§2) The number of cells that invaded the ECM was determined after 24 h. Data are expressed as percentage change in tumor invasion relative to that of DMSO-treated cells (n=3). (D) Wound healing by DMSO- and SPIR-treated HCT116, HT29, and CAL27 cells was compared. Data are calculated as the percentage change in distance of migration relative to that of DMSO-treated cells (n=3). […] Tumor xenografts and lung metastases were detected by bioluminescence imaging on day 25. Data are shown as the average total flux (photons/second)±standard deviation (n=8). (F) The lung metastases (arrows) were confirmed by examining lung tissue sections. * P≤0.05, ** P<0.01, *** P<0.005, **** P<0.0001.\nConfluent cell layers of CAL27 and HT29 cells with a 500 μm±50 μm gap were formed by using Ibidi culture inserts (RPI Corp.). Gap distances were measured at various times using a Nikon Eclipse Ti inverted microscope and NIS-Elements software (Nikon)."}, "[3]": {"system": "TIMP2 and TIMP3", "test": "qRT-PCR of TIMP2 and TIMP3 mRNA", "assay_type": "cell-based, human", "details": "HCT116 cells, 3 days", "protocol": "as §2\nFor qRT-PCR, total RNA was extracted from untreated or drug-treated tumor cells by using the RNA Clean & Concentrator (Zymo Research). All cDNA was generated by using the SuperScript VILO cDNA Synthesis kit (Life Technologies) and diluted 10-fold for analysis using the 7900HT Fast Real-time PCR System (Applied Biosystems). The data were calculated as the CT of target genes normalized to the CT of GAPDH of each sample. Primer sequences of the target genes were: MICA-F: 5′-[…]-3′, (SEQ ID NO: 14) MICA-R: 5′-[…]-[…]-3′, (SEQ ID NO: 15) MICB-F: 5′-[…]-3′, (SEQ ID NO: 16) MICB-R:5′-CCCTC-[…]-3′, (SEQ ID NO: 17), ULBP1-F:5′-[…]-3′, (SEQ ID NO: 18), ULBP1-R:5′-[…]-3′, (SEQ ID NO: 19), ULBP2-F:5′-[…]-3′, (SEQ ID NO: 20), ULBP2-R:5′-[…]-3′, (SEQ ID NO: 21), ULBP3-F:5′-[…]-TTCG-3′, (SEQ ID NO: 22), ULBP3-R:[…]-3′, (SEQ ID NO: 23), TIMP2-F:5′-[…]-[…]-3′, (SEQ ID NO: 24), TIMP2-R:[…]-3′, (SEQ ID NO: 25), TIMP3-F:5′-[…]-3′, (SEQ ID NO: 26), TIMP3-R:5′-[…]-[…]-3′ (SEQ ID NO: 27), GAPDH-F: 5′-[…]3′ (SEQ ID NO: 28), GAPDH-R: 5′-G-[…]-3′ (SEQ ID NO: 29). […] Differentially expressed transcripts were analyzed by ANOVA on Spotfire program."}, "[4]": {"system": "HCT116, HT29, and CAL27 cells", "test": "in vitro cell invasion assay (ECM-coated Transwell)", "assay_type": "cell-based, human", "details": "HCT116 cells", "protocol": "as §2\nThe invasiveness of the tumor cells was determined by using the CytoSelect 96-well Cell Invasion Assay with Basement Membrane (Cell Biolabs) according to the manufacturer instructions."}, "[5]": {"system": "47 NHRs in HCT116 cells", "test": "human nuclear hormone receptor siRNA library / siRNA knockdown, NKG2DL expression by NKG2D-Fc staining", "assay_type": "cell-based", "protocol": "as §1\nFor the transfection study, 2×10^5 cells were transfected with 60 pmol of siRNA molecules using lipofectamine RNAiMAX according to the manufacturer's instructions (Invitrogen).\nConsistent with previous reports, RXR-gamma was constitutively expressed in HCT116 cells (FIG. 5C) (Papi et al. 2010. Cancer Lett 297:65-74). Expression of RXR-gamma mRNA was also observed in all other cell lines tested. (FIG. 5D)."}}, "note": "Entries after “also recorded” stand apart in the source; their conditions may differ."}
{"compound": "Cn1c(=O)c2c(ncn2C)n(C)c1=O", "note": "[caffeine]", "values": [{"measurement": "effect of co-treatment on SPIR's upregulation of NKG2DLs", "setting": "[1]", "value": "completely abolished"}]}
{"compound": "C[C@]12CCC(=O)C=C1C=C[C@@H]1[C@@H]2CC[C@@]2(C)[C@H]1CC[C@@]21CCC(=O)O1", "note": "[canrenone]", "values": [{"measurement": "cell migration, MR antagonists vs SPIR", "setting": "[2]", "value": "did not reproduce the suppressive effect of SPIR"}, {"measurement": "NKG2DL expression, compound alone", "setting": "[1]", "value": "did not reproduce the phenotypes of enhanced expression of NKG2DL"}, {"measurement": "TIMP2 expression", "setting": "[3]", "value": "neither canrenone nor eplerenone upregulated TIMP2 expression"}, {"measurement": "cell invasion, MR antagonists vs SPIR", "setting": "[4]", "value": "did not reproduce the suppressive effect of SPIR"}]}
{"compound": "CC1=C(/C=C/C(C)=C\\C=C\\C(C)=C\\C(=O)O)C(C)(C)CCC1", "note": "[9-cis-RA, 9-cis-retinoic acid]", "values": [{"measurement": "NKG2DL expression, compound alone", "setting": "[1]", "value": "did not induce the upregulation of NKG2DL expression; also recorded: decrease was observed"}]}
{"compound": "RXR-alpha siRNA: siRNA targeting RXR-alpha, ThermoScientific Cat No. D-003443-06; GGGAGAAGGUCUAUGCGUC (listed as RNA, chemistry not given here)", "values": [{"measurement": "NKG2DL expression after gene knockdown without drug treatment", "setting": "[5]", "value": "enhances the expression of NKG2DLs; also recorded: increase of NKG2DL expression"}, {"measurement": "SPIR-mediated NKG2DL upregulation after siRNA knockdown", "setting": "[5]", "value": "did not affect the potential of SPIR in upregulating NKG2DL expression"}]}
{"compound": "CN1c2ccc([N+](=O)[O-])cc2N=C(c2ccc(C(=O)O)cc2)c2cc3c(cc21)C(C)(C)CCC3(C)C", "note": "[HX531]", "values": [{"measurement": "effect of co-treatment on SPIR's upregulation of NKG2DLs", "setting": "[1]", "value": "significantly reduced"}]}
{"compound": "COC(=O)[C@@H]1CC2=CC(=O)CC[C@]2(C)[C@@]23O[C@@H]2C[C@@]2(C)[C@@H](CC[C@@]24CCC(=O)O4)[C@H]13", "note": "[eplerenone]", "values": [{"measurement": "cell migration, MR antagonists vs SPIR", "setting": "[2]", "value": "did not reproduce the suppressive effect of SPIR"}, {"measurement": "NKG2DL expression, compound alone", "setting": "[1]", "value": "did not reproduce the phenotypes of enhanced expression of NKG2DL"}, {"measurement": "TIMP2 expression", "setting": "[3]", "value": "neither canrenone nor eplerenone upregulated TIMP2 expression"}, {"measurement": "cell invasion, MR antagonists vs SPIR", "setting": "[4]", "value": "did not reproduce the suppressive effect of SPIR"}]}
{"compound": "CS(=O)(=O)c1ccc(-c2cnc(N)c(C(=O)Nc3ccccc3)n2)cc1", "note": "[VE-821]", "values": [{"measurement": "effect of co-treatment on SPIR's upregulation of NKG2DLs", "setting": "[1]", "value": "only partially reduced"}, {"measurement": "effect of co-treatment on NKG2DL expression at increased concentration", "setting": "[1]; HCT116, SPIR 56 μM, VE-821 20 μM", "value": "did not further affect NKG2DL expression"}]}
{"compound": "O=c1cc(-c2cccc3c2Sc2ccccc2S3)oc(N2CCOCC2)c1", "note": "[KU55933]", "values": [{"measurement": "effect of co-treatment on SPIR's upregulation of NKG2DLs", "setting": "[1]", "value": "completely abolished"}]}
